Test results published in patent US12649751B2 (Arcus Biosciences, Inc., priority 2022, dated 2026).
Where two headings read alike, the source gives them in different places.

Legend:
[1] = tested on: p-SLP-76 (Ser376) in Jurkat cells; assay: pSLP76 Cellular Assay (AlphaLISA SureFire Ultra p-SLP-76 (Ser376), anti-CD3 activated Jurkat cells); assay type: cell-based; conditions: Homo sapiens, read-out: Cellular Potency
Experimental: pSLP76 cellular assay was performed using Jurkat cells and the AlphaLISA SureFire Ultra p-SLP-76 (Ser376) Assay Kit (PerkinElmer). Dose-response assays were performed in Greiner® Low Volume 384-well assay plates containing 200 nL of 22 serial 2-fold compound dilutions using Bravo and Echo. Jurkat cells were grown in RPMI-1640 supplemented with 10% FBS and PSG. The day prior to the assay, the cells were collected, and serum starved overnight in Opti-MEM. The day of the assay, the cells were collected and resuspended in HBSS. 100,000 cells/well were added to the compound plates and after a short spin, the plates were incubated at 37° C. for 1 h. The cells were activated by adding 10 μL of 0.025 mg/ml anti-CD3. Plates were then incubated at 37° C. for 45 min. Stimulation was terminated by adding […], followed by a brief centrifugation and 60 min of shaking at 300 rpm. Cell lysates (10 μL) were transferred to 384-well White Opti-plates and the samples were processed according to the manufacturer's directions. The fluorescence signal from pSLP76 was measured at 570 nm using Envision plate reader. IC50 values were determined by fitting the data to a standard 4-parameter logistic equation. The results are summarized in the Cellular Potency columns in Tables 4 and 5 below (Cellular Potency).

HPK1 = HPK1 (Homo sapiens, UniProt Q92918); assay: HPK1 Biochemical Assay (ADP-Glo luminescence; low ATP 10 μM or high ATP 200 μM); conditions: 2 nM HPK1, 10 μM ATP; read-out: Biochemical Potency (low ATP)
Sequence of HPK1 (Q92918 whole entry, species assumed): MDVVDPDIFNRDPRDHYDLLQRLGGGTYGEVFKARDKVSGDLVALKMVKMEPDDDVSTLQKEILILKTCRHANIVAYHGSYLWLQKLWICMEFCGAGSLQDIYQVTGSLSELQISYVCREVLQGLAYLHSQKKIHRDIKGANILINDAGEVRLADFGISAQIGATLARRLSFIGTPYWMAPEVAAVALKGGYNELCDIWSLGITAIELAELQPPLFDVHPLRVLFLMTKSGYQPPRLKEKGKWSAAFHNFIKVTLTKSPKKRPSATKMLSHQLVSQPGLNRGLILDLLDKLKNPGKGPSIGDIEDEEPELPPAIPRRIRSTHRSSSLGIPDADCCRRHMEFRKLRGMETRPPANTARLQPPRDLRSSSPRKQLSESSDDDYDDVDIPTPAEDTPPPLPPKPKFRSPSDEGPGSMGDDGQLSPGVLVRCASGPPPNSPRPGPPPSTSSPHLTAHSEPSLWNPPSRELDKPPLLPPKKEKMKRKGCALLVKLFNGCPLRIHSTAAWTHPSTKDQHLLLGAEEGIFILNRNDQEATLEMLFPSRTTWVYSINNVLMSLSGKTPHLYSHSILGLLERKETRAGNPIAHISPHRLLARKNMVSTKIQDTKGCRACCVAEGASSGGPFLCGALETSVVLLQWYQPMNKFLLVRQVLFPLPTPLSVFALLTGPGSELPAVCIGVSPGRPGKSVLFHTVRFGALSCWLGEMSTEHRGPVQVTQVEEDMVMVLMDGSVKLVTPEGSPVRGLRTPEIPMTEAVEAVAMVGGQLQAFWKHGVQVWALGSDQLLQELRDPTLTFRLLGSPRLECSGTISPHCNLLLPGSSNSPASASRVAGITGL

[2] = Jurkat cells, anti-CD3 stimulation, pSLP76

SMILES	IC50 [1, 2] [nM]	IC50 (HPK1) [nM]	IC50 ([1]; Jurkat) [nM]
CN(C)Cc1nc(Nc2cc3nc(-c4c(F)cccc4F)sc3cn2)ccc1N1CCOCC1 [Example 1, N-[2-(2,6-Difluorophenyl)-[1,3]thiazolo[5,4-c]pyridin-6-yl]-6-[(dimethylamino)methyl]-5-(morpholin-4-yl)pyridin-2-amine]	–	< 100	> 5000
c1ccc(-c2nc3cc(Nc4ccc(N5CCOCC5)c(CN5CCCC5)n4)ncc3s2)nc1 [Example 7, 5-(Morpholin-4-yl)-N-[2-(pyridin-2-yl)-[1,3]thiazolo[5,4-c]pyridin-6-yl]-6-[(pyrrolidin-1-yl)methyl]pyridin-2-amine]	1000 to 5000	< 100	–
CN(C)Cc1nc(Nc2cc3nc(-c4c(F)cccc4F)sc3cn2)ccc1N1CCC(O)CC1 [Example 12, 1-(6-{[2-(2,6-Difluorophenyl)-[1,3]thiazolo[5,4-c]pyridin-6-yl]amino}-2-[(dimethylamino)methyl]pyridin-3-yl)piperidin-4-ol]	1000 to 5000	< 100	–
Cc1cccc(C)c1-c1nc2cc(Nc3ccc(N4CCOCC4)c(CN(C)C)n3)ncc2s1 [Example 13, 6-[(Dimethylamino)methyl]-N-[2-(2,6-dimethylphenyl)-[1,3]thiazolo[5,4-c]pyridin-6-yl]-5-(morpholin-4-yl)pyridin-2-amine]	100 to 1000	< 100	–
Cc1cccc(F)c1-c1nc2cc(Nc3ccc(N4CCOCC4)c(CN(C)C)n3)ncc2s1 [Example 14, 6-[(Dimethylamino)methyl]-N-[2-(2-fluoro-6-methylphenyl)-[1,3]thiazolo[5,4-c]pyridin-6-yl]-5-(morpholin-4-yl)pyridin-2-amine]	100 to 1000	< 100	–
CN(C)Cc1nc(Nc2cc3nc(-c4c(F)cccc4C(F)(F)F)sc3cn2)ccc1N1CCOCC1 [Example 15, 6-[(Dimethylamino)methyl]-N-{2-[2-fluoro-6-(trifluoromethyl)phenyl]-[1,3]thiazolo[5,4-c]pyridin-6-yl}-5-(morpholin-4-yl)pyridin-2-amine]	100 to 1000	< 100	–
Cc1cccc(F)c1-c1nc2cc(Nc3ccc(N4CCOCC4)c(CN4CCCC4)n3)ncc2s1 [Example 16, N-[2-(2-Fluoro-6-methylphenyl)-[1,3]thiazolo[5,4-c]pyridin-6-yl]-5-(morpholin-4-yl)-6-[(pyrrolidin-1-yl)methyl]pyridin-2-amine]	1000 to 5000	< 100	–
Fc1cccc(F)c1-c1nc2cc(Nc3ccc(N4CCOCC4)c(CN4CCCC4)n3)ncc2s1 [Example 17, N-[2-(2,6-Difluorophenyl)-[1,3]thiazolo[5,4-c]pyridin-6-yl]-5-(morpholin-4-yl)-6-[(pyrrolidin-1-yl)methyl]pyridin-2-amine]	1000 to 5000	< 100	–
Cc1cccc(F)c1-c1nc2cc(Nc3ccc(N4CCC(O)CC4)c(CN(C)C)n3)ncc2s1 [Example 18, 1-{2-[(Dimethylamino)methyl]-6-{[2-(2-fluoro-6-methylphenyl)-[1,3]thiazolo[5,4-c]pyridin-6-yl]amino}pyridin-3-yl}piperidin-4-ol]	100 to 1000	< 100	–
CN(C)Cc1nc(Nc2cccc(F)c2-c2nc3cc(Cl)ncc3s2)ccc1N1CCOCC1 [Example 19, N-(2-{6-Chloro-[1,3]thiazolo[5,4-c]pyridin-2-yl}-3-fluorophenyl)-6-[(dimethylamino)methyl]-5-(morpholin-4-yl)pyridin-2-amine]	> 5000	> 5000	–
CN(C)Cc1nc(Nc2cc3nc(-c4c(F)cccc4Cl)sc3cn2)ccc1N1CCOCC1 [Example 20, N-[2-(2-Chloro-6-fluorophenyl)-[1,3]thiazolo[5,4-c]pyridin-6-yl]-6-[(dimethylamino)methyl]-5-(morpholin-4-yl)pyridin-2-amine]	100 to 1000	< 100	–
CC(C)n1cc(-c2nc3cc(Nc4ccc(N5CCOCC5)c(CN5CCCC5)n4)ncc3s2)cn1 [Example 23, 5-(Morpholin-4-yl)-N-{2-[1-(propan-2-yl)-1H-pyrazol-4-yl]-[1,3]thiazolo[5,4-c]pyridin-6-yl}-6-[(pyrrolidin-1-yl)methyl]pyridin-2-amine]	> 5000	< 100	–
Cn1cc(-c2nc3cc(Nc4ccc(N5CCOCC5)c(CN5CCCC5)n4)ncc3s2)cn1 [Example 24, N-[2-(1-Methyl-1H-pyrazol-4-yl)-[1,3]thiazolo[5,4-c]pyridin-6-yl]-5-(morpholin-4-yl)-6-[(pyrrolidin-1-yl)methyl]pyridin-2-amine]	100 to 1000	< 100	–
COc1cccc(F)c1-c1nc2cc(Nc3ccc(N4CCOCC4)c(CN(C)C)n3)ncc2s1 [Example 26, 6-[(Dimethylamino)methyl]-N-[2-(2-fluoro-6-methoxyphenyl)-[1,3]thiazolo[5,4-c]pyridin-6-yl]-5-(morpholin-4-yl)pyridin-2-amine]	100 to 1000	< 100	–
Cc1c(-c2nc3cc(Nc4ccc(N5CCOCC5)c(CN5CCCC5)n4)ncc3s2)cnc2c1NCCO2 [Example 27, N-(2-{8-Methyl-1H,2H,3H-pyrido[2,3-b][1,4]oxazin-7-yl}-[1,3]thiazolo[5,4-c]pyridin-6-yl)-5-(morpholin-4-yl)-6-[(pyrrolidin-1-yl)methyl]pyridin-2-amine]	100 to 1000	< 100	–
Cc1c(-c2nc3cc(Nc4ccc(N5CCOCC5)c(CN(C)C)n4)ncc3s2)cnc2c1NCCO2 [Example 28, 6-[(Dimethylamino)methyl]-N-(2-{8-methyl-1H,2H,3H-pyrido[2,3-b][1,4]oxazin-7-yl}-[1,3]thiazolo[5,4-c]pyridin-6-yl)-5-(morpholin-4-yl)pyridin-2-amine]	100 to 1000	< 100	–
Cc1c(N)cncc1-c1nc2cc(Nc3ccc(N4CCOCC4)c(CN(C)C)n3)ncc2s1 [Example 29, N-[2-(5-Amino-4-methylpyridin-3-yl)-[1,3]thiazolo[5,4-c]pyridin-6-yl]-6-[(dimethylamino)methyl]-5-(morpholin-4-yl)pyridin-2-amine]	100 to 1000	< 100	–

Further lines, with some results ahead:

IC50 [1, 2] [nM]	IC50 (HPK1) [nM]	SMILES	IC50 ([1]; Jurkat) [nM]
100 to 1000	< 100	Cc1cccnc1-c1nc2cc(Nc3ccc([C@H]4CCOC4)c(CN4CCCC4)n3)ncc2s1 (single isomer, unassigned) [Example 258, N-[2-(3-Methylpyridin-2-yl)-[1,3]thiazolo[5,4-c]pyridin-6-yl]-5-[(3R or 3S)-oxolan-3-yl]-6-[(pyrrolidin-1-yl)methyl]pyridin-2-amine]	–
100 to 1000	< 100	Cc1cccnc1-c1nc2cc(Nc3ccc([C@@H]4CCOC4)c(CN4CCCC4)n3)ncc2s1 (single isomer, unassigned) [Example 259, N-[2-(3-Methylpyridin-2-yl)-[1,3]thiazolo[5,4-c]pyridin-6-yl]-5-[(3R or 3S)-oxolan-3-yl]-6-[(pyrrolidin-1-yl)methyl]pyridin-2-amine]	–
100 to 1000	< 100	c1cncc(-c2nc3cc(Nc4ccc([C@H]5CCOC5)c(CN5CCCC5)n4)ncc3s2)c1 (single isomer, unassigned) [Example 260, 5-[(3R or 3S)—Oxolan-3-yl]-N-[2-(pyridin-3-yl)-[1,3]thiazolo[5,4-c]pyridin-6-yl]-6-[(pyrrolidin-1-yl)methyl]pyridin-2-amine]	–
100 to 1000	< 100	c1cncc(-c2nc3cc(Nc4ccc([C@@H]5CCOC5)c(CN5CCCC5)n4)ncc3s2)c1 (single isomer, unassigned) [Example 261, 5-[(3R or 3S)—Oxolan-3-yl]-N-[2-(pyridin-3-yl)-[1,3]thiazolo[5,4-c]pyridin-6-yl]-6-[(pyrrolidin-1-yl)methyl]pyridin-2-amine]	–
100 to 1000	< 100	Cc1ccncc1-c1nc2cc(Nc3ccc(N4CCOCC4)c(CN(C)C)n3)ncc2s1 [Example 3, 6-[(Dimethylamino)methyl]-N-[2-(4-methylpyridin-3-yl)-[1,3]thiazolo[5,4-c]pyridin-6-yl]-5-(morpholin-4-yl)pyridin-2-amine]	–
100 to 1000	< 100	CN(C)Cc1nc(Nc2cc3nc(-c4ccncc4F)sc3cn2)ccc1N1CCOCC1 [Example 4, 6-[(Dimethylamino)methyl]-N-[2-(3-fluoropyridin-4-yl)-[1,3]thiazolo[5,4-c]pyridin-6-yl]-5-(morpholin-4-yl)pyridin-2-amine]	–
< 100	< 100	CN(C)Cc1nc(Nc2cc3nc(-c4ccncc4)sc3cn2)ccc1N1CCOCC1 [Example 5, 6-[(Dimethylamino)methyl]-5-(morpholin-4-yl)-N-[2-(pyridin-4-yl)-[1,3]thiazolo[5,4-c]pyridin-6-yl]pyridin-2-amine]	–
100 to 1000	< 100	CN(C)Cc1nc(Nc2cc3nc(-c4cccnc4)sc3cn2)ccc1N1CCOCC1 [Example 6, 6-[(Dimethylamino)methyl]-5-(morpholin-4-yl)-N-[2-(pyridin-3-yl)-[1,3]thiazolo[5,4-c]pyridin-6-yl]pyridin-2-amine]	–
100 to 1000	< 100	Cc1cccnc1-c1nc2cc(Nc3ccc(N4CCC(F)(F)C4)c(CN4CCCC4)n3)ncc2s1 [Example 9, 5-(3,3-Difluoropyrrolidin-1-yl)-N-[2-(3-methylpyridin-2-yl)-[1,3]thiazolo[5,4-c]pyridin-6-yl]-6-[(pyrrolidin-1-yl)methyl]pyridin-2-amine]	–
